# Assay results: patent publication US20100298302A1, “NOVEL PROTEIN KINASE MODULATORS” (priority 2009, published 2010)
# Read-outs that look alike come from different tables or passages of the source.
# Experiments:
# recombinant PIM-1 = recombinant PIM-1 (Homo sapiens, UniProt P11309); experiment: PIM-1 kinase assay; assay type: biochemical; details: for inhibition at 0.5 µM: 500 nM compound, read-out: PIM1: % inh 500 nM
# Description: The following procedure was used to assay the PIM-1 kinase activity of compounds of the invention. Other methods for assaying PIM-1 and other PIM kinases, as well as methods to assay for activity against various kinases known in the art.
# In a final reaction volume of 50 ul, recombinant PIM-1 (1 ng) was incubated with 12 mM MOPS pH 7.0, 0.4 mM EDTA, glycerol 1%, brij 35 0.002%, 2-mercaptoethanol 0.02%, BSA 0.2 mg/ml, 100 uM KKRNRTLTK, 10 mM MgAcetate, 15 uM ATP, [γ-^33P-ATP] (specific activity approx. 500 cpm/pmol), DMSO 4% and test inhibitor compound at the required concentration. The reaction was initiated by the addition of the Magnesium ATP mixture. After 40 min incubation at 23° C., the reactions were quenched by the addition of 100 ul 0.75% Phosphoric acid, and the labeled peptide collected by filtration through a phosphocellulose filter plate. The plate was washed 4 times with 0.075% phosphoric acid (100 ul per well) and then, after the addition of scintillation fluid (20 ul per well), the counts were measured by a scintillation counter.
# MV-4-11 = experiment: Alamar Blue cell proliferation assay, MV-4-11; assay type: cell-based; details: Homo sapiens, MV4-11; Table 4
# Description: (§1) A representative cell-proliferation assay protocol using Alamar Blue dye (stored at 4° C., use 20 ul per well) is described hereafter.
# (§2) a. Split and trypsinize cells.
# (§3) b. Count cells using hemocytometer.
# (§4) c. Plate 4,000-5,000 cells per well in 100 μl of medium and seed into a 96-well plate according to the following plate layout. Add cell culture medium only to wells B10 to B12. Wells B1 to B9 have cells but no compound added.
# (§5) d. Add 100 μl of 2× drug dilution to each well in a concentration shown in the plate layout above. At the same time, add 100 μl of media into the control wells (wells B10 to B12). Total volume is 200 μl/well.
# (§6) e. Incubate four (4) days at 37° C., 5% CO2 in a humidified incubator.
# (§7) f. Add 20 μl Alamar Blue reagent to each well.
# (§8) g. Incubate for four (4) hours at 37° C., 5% CO2 in a humidified incubator.
# (§9) h. Record fluorescence at an excitation wavelength of 544 nm and emission wavelength of 590 nm using a microplate reader.
# (§10) In the assays, cells are cultured with a test compound for approximately four days, the dye is then added to the cells and fluorescence of […] dye is detected after approximately four hours. Different types of cells can be utilized in the assays (e.g., HCT-116 human colorectal carcinoma cells, PC-3 human prostatic cancer cells, MDA-MB231 human breast cancer cells, K-562 human chronic myelogenous leukemia (CML) cells, MiaPaca human pancreatic carcinoma cells, MV-4 human acute myeloid leukemia cells, and BxPC3 human pancreatic adenocarcinoma cells).
# [1] = system: K-562 human chronic myelogenous leukemia (CML) cells; experiment: Alamar Blue cell proliferation assay, K-562; assay type: cell-based; details: K562, Table 4
# Description: as §1, §2, §3, §4, §5, §6, §7, §8, §9, §10
# recombinant human PIM2 = recombinant human PIM2 (Homo sapiens, UniProt Q9P1W9); experiment: PIM-2 kinase assay; assay type: biochemical
# Sequence of recombinant human PIM2 (Q9P1W9 whole entry): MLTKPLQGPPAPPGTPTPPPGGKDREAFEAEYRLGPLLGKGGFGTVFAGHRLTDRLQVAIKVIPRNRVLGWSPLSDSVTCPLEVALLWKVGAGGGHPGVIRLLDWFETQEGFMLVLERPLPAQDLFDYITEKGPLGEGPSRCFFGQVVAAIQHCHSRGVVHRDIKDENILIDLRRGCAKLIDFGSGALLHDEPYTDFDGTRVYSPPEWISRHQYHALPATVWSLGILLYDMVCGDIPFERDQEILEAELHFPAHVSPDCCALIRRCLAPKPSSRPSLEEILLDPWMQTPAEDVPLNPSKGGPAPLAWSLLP
# Description: Test compounds dissolved and diluted in DMSO (2 μl) were added to a reaction mixture comprising 10 μl of 5× Reaction Buffer (40 mM MOPS pH 7.0, 5 mM EDTA), 10 μl of recombinant human PIM2 solution (4 ng PIM-2 dissolved in dilution buffer (20 mM MOPS pH 7.0; EDTA 1 mM; 5% Glycerol; 0.01% Brij 35; […]; […] 2-mercaptoethanol; 1 mg/ml BSA)) and 8 ul of water. Reactions were initiated by the addition of 10 ul of ATP Solution ([…] (15 mM MgCl2; 75 uM ATP) 1% ([γ-33P]ATP: Stock 1 mCi/100 μl; 3000 Ci/mmol (Perkin Elmer)) and 10 ul of substrate peptide solution (RSRSSYPAGT, dissolved in water at a concentration of 1 mM), Reactions were maintained for 10 min at 30° C. The reactions were quenched with 100 ul of 0.75% Phosphoric acid, then transferred to and filtered through a Phosphocellulose filter plate (Millipore, MSPH-N6B-50). After washing each well 4 times with 0.75% Phosphoric acid, scintillation fluid (20 uL) was added to each well and the residual radioactivity was measured using a Wallac luminescence counter.
# recombinant human CK2 = target: T1, recombinant human CK2 (Homo sapiens, UniProt P68400); experiment: cell-free CK2 assay; assay type: biochemical
# T1 construct: purchased Upstate
# T1 sequence (P68400 whole entry): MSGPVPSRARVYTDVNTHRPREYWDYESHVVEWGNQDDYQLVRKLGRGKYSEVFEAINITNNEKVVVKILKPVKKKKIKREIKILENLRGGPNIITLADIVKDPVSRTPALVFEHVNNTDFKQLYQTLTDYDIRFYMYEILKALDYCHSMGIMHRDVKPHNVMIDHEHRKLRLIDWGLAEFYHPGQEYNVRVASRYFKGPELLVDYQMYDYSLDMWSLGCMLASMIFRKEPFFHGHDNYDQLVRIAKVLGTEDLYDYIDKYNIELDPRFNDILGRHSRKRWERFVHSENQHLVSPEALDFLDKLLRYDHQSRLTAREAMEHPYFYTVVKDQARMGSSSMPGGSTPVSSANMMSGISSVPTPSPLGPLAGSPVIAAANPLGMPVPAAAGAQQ
# T1 sequence (P67870 whole entry partner): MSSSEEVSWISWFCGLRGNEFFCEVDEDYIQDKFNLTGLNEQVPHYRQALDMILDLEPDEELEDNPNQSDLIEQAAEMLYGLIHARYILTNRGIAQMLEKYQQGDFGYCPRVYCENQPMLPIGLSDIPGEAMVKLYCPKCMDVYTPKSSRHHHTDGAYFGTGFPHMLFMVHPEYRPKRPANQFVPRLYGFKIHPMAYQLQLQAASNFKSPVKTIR
# Description: Modulatory activity of compounds described herein was assessed in vitro in cell-free CK2 assays by the following method.
# Test compounds in aqueous solution were added at a volume of 10 microliters, to a reaction mixture comprising 10 microliters Assay Dilution Buffer (ADB; 20 mM MOPS, pH 7.2, 25 mM beta-glycerolphosphate, 5 mM EGTA, 1 mM sodium orthovanadate and 1 mM dithiothreitol), 10 microliters of substrate peptide (RRRDDDSDDD, dissolved in ADB at a concentration of 1 mM), 10 microliters of recombinant human CK2 (25 ng dissolved in ADB; Upstate). Reactions were initiated by the addition of 10 microliters of ATP Solution (90% 75 mM MgCl2, 75 micromolar ATP dissolved in ADB; 10% [γ-^33P]ATP (stock 1 mCi/100 μl; 3000 Ci/mmol (Perkin Elmer) and maintained for 10 minutes at 30 degrees C. The reactions were quenched with 100 microliters of 0.75% phosphoric acid, then transferred to and filtered through a phosphocellulose filter plate (Millipore). After washing each well 5 times with 0.75% phosphoric acid, the plate was dried under vacuum for 5 min and, following the addition of 15 ul of scintilation fluid to each well, the residual radioactivity was measured using a Wallac luminescence counter.
# [2] = 15 μM ATP, read-out: PIM1: IC50 (15 μM ATP)
# Sequence of recombinant PIM-1 (P11309 whole entry): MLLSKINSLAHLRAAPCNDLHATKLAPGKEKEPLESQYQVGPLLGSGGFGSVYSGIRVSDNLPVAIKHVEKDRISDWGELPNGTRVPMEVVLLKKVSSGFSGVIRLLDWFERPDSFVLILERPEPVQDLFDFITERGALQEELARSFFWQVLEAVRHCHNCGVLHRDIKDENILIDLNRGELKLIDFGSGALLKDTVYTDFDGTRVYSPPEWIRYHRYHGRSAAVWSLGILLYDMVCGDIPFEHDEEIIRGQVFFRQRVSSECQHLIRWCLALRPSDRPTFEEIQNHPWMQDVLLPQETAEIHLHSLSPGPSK
inhibition at 0.5 µM (recombinant PIM-1),"IC50 (recombinant PIM-1; Table 5, read-out: PIM1 IC50)",IC50 (recombinant human PIM2),IC50 (recombinant human CK2),Structure (SMILES),further results
19.4%,,,,COc1ccc(Nc2nc3cc(-c4nnn[nH]4)ccc3n3cccc23)cc1Cl,
14.4%,,,,c1ccc(CNc2nc3cc(-c4nnn[nH]4)ccc3n3cccc23)cc1,
81.5%,,,,CCN1CCCC1CNc1nc2cc(-c3nnn[nH]3)ccc2n2cccc12 (stereo not shown),IC50 (MV-4-11): > 10000 nM; IC50 (recombinant PIM-1; [2]): 97 nM; IC50 [1]: > 10 µM
76.5%,,,,CN(C)CCNc1nc2cc(C(=O)O)ccc2n2cccc12,IC50 (MV-4-11): 688 nM; IC50 (recombinant PIM-1; [2]): 173 nM; IC50 [1]: > 10 µM
-28.6%,,,,N#Cc1ccc2c(c1)[nH]c(=O)c1cccn12,
-0.195%,,,,O=C(c1ccc2c(c1)[nH]c(=O)c1cccn12)N1CCCNCC1,
,> 2500 nM,> 2500 nM,< 5 µM,O=C(O)c1cccc2c1[nH]c(=O)c1cccn12,
,> 2500 nM,< 5000 nM,> 5 µM,OCc1cccc2c1nc(Nc1ccccc1F)c1cccn12,
,> 2500 nM,> 2500 nM,> 5 µM,NC(=O)c1cccc2c1[nH]c(=O)c1cccn12,
18.9%,,,,O=C(O)c1ccc2c(c1)nc(NCCN1CCOCC1)c1cccn12,
75.9%,,,,c1ccc(Nc2nc3cc(-c4nnn[nH]4)ccc3n3cccc23)cc1,IC50 (MV-4-11): > 10000 nM; IC50 (recombinant PIM-1; [2]): 164 nM; IC50 [1]: > 10 µM
,< 100 nM,< 5000 nM,< 0.1 µM,COc1ccc(Sc2nc3c(-c4nnc[nH]4)cccc3n3cccc23)cc1,
73.1%,,,,O=C(O)c1ccc2c(c1)nc(Nc1ccccc1)c1cccn12,IC50 (MV-4-11): 483 nM; IC50 (recombinant PIM-1; [2]): 130 nM; IC50 [1]: > 10 µM
,> 2500 nM,> 2500 nM,> 5 µM,CN(C)CCNc1nc2c(-c3nnc[nH]3)cccc2n2cccc12,
,< 100 nM,< 1000 nM,< 5 µM,FC(F)(F)CCNc1nc2c(-c3nnc[nH]3)cccc2n2cccc12,
-22.5%,,,,NC(=O)c1ccc2c(c1)[nH]c(=O)c1cccn12,
,< 5000 nM,< 5000 nM,< 5 µM,c1cc(-c2nnc[nH]2)c2nc(Nc3nccs3)c3cccn3c2c1,
14%,,,,CCOC(=O)c1ccc2c(c1)[nH]c(=O)c1cccn12,
-31.9%,,,,CN1CCN(C(=O)c2ccc3c(c2)[nH]c(=O)c2cccn23)CC1,
-35.4%,,,,N#Cc1ccc2c(c1)nc(Cl)c1cccn12,
35%,,,,O=C(O)c1ccc2c(c1)nc(NCCO)c1cccn12,
,,> 2500 nM,< 5 µM,CCOC(=O)c1cccc2c1nc(Nc1ccccc1F)c1cncn12,
-8.35%,,,,CC(=O)N1CCN(C(=O)c2ccc3c(c2)[nH]c(=O)c2cccn23)CC1,
-76.2%,,,,CCOC(=O)c1ccc2c(c1)nc(Nc1ccc(F)c(Cl)c1)c1cccn12,
41.8%,,,,O=c1[nH]c2cc(-c3nnn[nH]3)ccc2n2cccc12,
,< 100 nM,< 1000 nM,< 1 µM,c1cc(-c2nnc[nH]2)c2nc(NC3CC3)c3cccn3c2c1,
